From patent US7713994B2 (Wyeth LLC, priority 2005, dated 2010)
Where two headings read alike, the source gives them in different places.

Key:
[1] = molecular target: T1, cyclin D1/cdk 4 enzyme (Homo sapiens, UniProt P11802); assay: CDK4 ELISA kinase assay (phospho-Rb ser 795 detection); format: biochemical
T1 construct: made in house; host or cells: Sf9 insect cells, recombinant baculovirus
Procedure, shortened: (§1)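 GST-Rb C-terminal fragment coated on plates; partially purified Sf9-expressed cyclin D1/CDK4, cyclin E/CDK2 or cyclin B/CDK1 with 200 μM ATP, pH 7.5 HEPES/MgCl2 buffer, 1 h at 30 °C; screen compound final 10 μg/ml. Phospho-Rb Ser795 detected by antibody ELISA (TMB, A450); % of control, IC50 from background-subtracted inhibition curves.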

[2] = molecular target: T2, cyclin E/CDK2 enzyme (Homo sapiens, UniProt P24941); assay: CDK2 ELISA kinase assay (phospho-Rb ser 795 detection); format: biochemical
T2 construct: made in house; host or cells: Sf9 insect cells, recombinant baculovirus
Procedure, shortened: as §1

[3] = test system: MCF-7; assay: Cytotoxicity assay (SRB), MCF-7; format: cell-based; settings: Homo sapiens, MCF7, 72 h, MCF-7 cells, SRB, read-out: In Vitro Cellular Activity IC50 MCF-7
Procedure, shortened: (§2)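 Cells seeded overnight at 37 °C, 7% CO2 (BT474 12000, HCT-116 4000, LoVo and MCF-7 6000 cells/well) in RPMI 1640 with 5% FBS, then exposed to compound dilutions for 3 days (BT474 6 days). Survival versus untreated controls by TCA fixation and SRB staining, absorbance 540 nm.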

[4] = test system: LoVo; assay: Cytotoxicity assay (SRB), LoVo; format: cell-based; settings: Homo sapiens, LoVo, 72 h, LoVo cells, SRB, read-out: In Vitro Cellular Activity IC50 LOVO
Procedure, shortened: as §2

[5] = molecular target: T3, cyclin B/CDK1 enzyme (Homo sapiens, UniProt P06493); assay: CDK1 ELISA kinase assay (phospho-Rb ser 795 detection); format: biochemical
T3 construct: purchased New England BioLabs; host or cells: Sf9 insect cells, recombinant baculovirus
T3 sequence (P06493 whole entry): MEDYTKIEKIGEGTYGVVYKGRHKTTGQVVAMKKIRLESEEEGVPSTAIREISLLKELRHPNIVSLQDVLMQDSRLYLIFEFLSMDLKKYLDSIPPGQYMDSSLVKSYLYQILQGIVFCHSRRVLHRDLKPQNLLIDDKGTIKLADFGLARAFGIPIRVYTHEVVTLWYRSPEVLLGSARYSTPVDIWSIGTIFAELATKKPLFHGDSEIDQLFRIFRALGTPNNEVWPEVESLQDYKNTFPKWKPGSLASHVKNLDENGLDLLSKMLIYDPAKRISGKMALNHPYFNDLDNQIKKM
T3 sequence (P14635 whole entry partner): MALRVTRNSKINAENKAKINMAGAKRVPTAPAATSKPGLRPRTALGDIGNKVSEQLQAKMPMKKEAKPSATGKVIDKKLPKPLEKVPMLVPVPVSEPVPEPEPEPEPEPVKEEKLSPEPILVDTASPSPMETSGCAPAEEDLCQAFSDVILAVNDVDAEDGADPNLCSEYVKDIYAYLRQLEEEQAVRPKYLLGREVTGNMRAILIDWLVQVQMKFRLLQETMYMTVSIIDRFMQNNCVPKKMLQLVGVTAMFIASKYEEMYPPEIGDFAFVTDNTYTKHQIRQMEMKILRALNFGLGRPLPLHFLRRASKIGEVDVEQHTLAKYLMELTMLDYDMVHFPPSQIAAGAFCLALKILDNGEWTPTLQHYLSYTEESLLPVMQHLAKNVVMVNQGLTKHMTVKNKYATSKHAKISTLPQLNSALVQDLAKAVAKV
Procedure, shortened: as §1

[6] = test system: HCT-116; assay: Cytotoxicity assay (SRB), HCT-116; format: cell-based; settings: Homo sapiens, HCT-116, 72 h, HCT116 cells, SRB, read-out: In Vitro Cellular Activity IC50 HCT116
Procedure, shortened: as §2

[7] = test system: BT474; assay: Cytotoxicity assay (SRB), BT474; format: cell-based
Procedure, shortened: as §2

[8] = In Vitro Enzyme Assays, 200 μM ATP, read-out: CDK4 IC50
[9] = In Vitro Enzyme Assays, read-out: CDK2 IC50
[10] = In Vitro Enzyme Assays, read-out: CDK1 IC50
[11] = Homo sapiens, BT-474, 144 h, BT474 cells, SRB, 6 days; read-out: In Vitro Cellular Activity IC50 BT474
[12] = Homo sapiens, BT-474, 144 h, BT474 cells, 6 days, SRB; read-out: In Vitro Cellular Activity IC50 BT474
[13] = In Vitro Enzyme Assay, cyclin D1/cdk 4, read-out: CDK4 IC50
[14] = In Vitro Enzyme Assay, cyclin E/CDK2, read-out: CDK2 IC50
[15] = In Vitro Enzyme Assay, cyclin B/CDK1, read-out: CDK1 IC50

T1 sequence (P11802 whole entry, species assumed): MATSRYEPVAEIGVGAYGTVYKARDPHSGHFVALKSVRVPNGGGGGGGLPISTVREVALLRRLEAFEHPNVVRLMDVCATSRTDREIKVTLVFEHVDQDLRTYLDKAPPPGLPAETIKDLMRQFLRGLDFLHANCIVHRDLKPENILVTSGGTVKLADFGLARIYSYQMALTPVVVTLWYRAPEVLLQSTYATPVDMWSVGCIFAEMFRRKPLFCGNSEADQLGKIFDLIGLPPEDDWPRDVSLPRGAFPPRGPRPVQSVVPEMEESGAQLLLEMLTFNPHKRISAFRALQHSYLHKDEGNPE
T1 sequence (P24385 whole entry partner, species assumed): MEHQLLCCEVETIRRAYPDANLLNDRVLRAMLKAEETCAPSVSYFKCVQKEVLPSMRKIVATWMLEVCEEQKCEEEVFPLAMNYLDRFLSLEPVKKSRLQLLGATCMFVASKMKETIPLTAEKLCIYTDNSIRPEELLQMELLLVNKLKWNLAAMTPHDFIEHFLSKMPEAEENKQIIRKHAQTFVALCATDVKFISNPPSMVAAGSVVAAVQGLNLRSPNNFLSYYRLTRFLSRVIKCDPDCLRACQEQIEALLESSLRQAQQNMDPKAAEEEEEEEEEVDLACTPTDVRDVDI

SMILES | IC50 [1, 8] | IC50 [2, 9] | IC50 ([3]; three days) | IC50 ([4]; three days) | IC50 [5, 10] | IC50 ([6]; three days) | IC50 [7, 11] | IC50 ([3]; 3 days) | IC50 ([4]; 3 days) | IC50 ([6]; 3 days) | IC50 [7, 12] | IC50 [1, 13] | IC50 [2, 14] | IC50 [5, 15] | IC50 ([1]; CDK4 IC50, In Vitro Enzyme Assays, 200 μM ATP) | IC50 ([5]; CDK1 IC50, In Vitro Enzyme Assays)
CCC(=O)Nc1ccc(CN/C=C2\C(=O)NC(=O)c3ccc(I)cc32)cc1O [Example 341, N-[2-Hydroxy-4-({[(Z)-(6-iodo-1,3-dioxo-2,3-dihydroisoquinolin-4(1H)-ylidene)methyl]amino}methyl)phenyl]propanamide] | 20 nM | 0.59 µM | 2.5 µM | 0.95 µM | 3.1 µM | 1 µM | 0.93 µM |  |  |  |  |  |  |  |  | 
C[C@@H]1CN(c2ccc(N/C=C3\C(=O)NC(=O)c4ccc(-c5ccc(F)cc5)cc43)cc2)C[C@H](C)N1 [Example 205, (4Z)-4-({[4-(3,5-Dimethylpiperazin-1-yl)phenyl]amino}methylene)-6-(4-fluorophenyl)-isoquinoline-1,3(2H,4H)-dione] | 440 nM | 48.6 µM | 1.5 µM | 3.1 µM | 31 µM | 1.1 µM | 2.4 µM |  |  |  |  |  |  |  |  | 
NC(=O)C1CCN(c2ccc(N/C=C3\C(=O)NC(=O)c4ccc(I)cc43)cc2)CC1 [Example 430, 1-(4-{[(Z)-(6-Iodo-1,3-dioxo-2,3-dihydroisoquinolin-4(1H)-ylidene)methyl]amino}phenyl)piperidine-4-carboxamide] | 2300 nM | 15.4 µM |  |  | 19.3 µM |  |  | 11.7 µM | 14.9 µM | 5.6 µM | 13.8 µM |  |  |  |  | 
O=C1NC(=O)c2ccc(-c3ccc(CO)cc3)cc2C1=CNCc1ccc(O)c(O)c1 [Example 817, 4-[(3,4-Dihydroxy-benzylamino)-methylene]-6-(4-hydroxymethyl-phenyl)-4H-isoquinoline-1,3-dione] |  |  |  |  |  |  |  | 24.9 µM | 34.9 µM | 46.9 µM | 16.2 µM | 40 nM | 7 µM | 7 µM |  | 
CC(C)[Si](Oc1cc(CN/C=C2\C(=O)NC(=O)c3ccc(Br)cc32)ccc1N)(C(C)C)C(C)C [Example 303, (4Z)-4-[({4-Amino-3-[(triisopropylsilyl)oxy]benzyl}amino)methylene]-6-bromoisoquinoline-1,3(2H,4H)-dione] |  | 3.7 µM | 10 µM | 4.6 µM |  | 5.3 µM | 3.1 µM |  |  |  |  |  |  |  | 390 nM | 33.9 µM
COC(C)C1CCCN1Cc1ccc(N/C=C2\C(=O)NC(=O)c3ccc(I)cc32)cc1 (stereo not shown) [Example 375, 6-Iodo-4-({4-[2-(1-methoxy-ethyl)-pyrrolidin-1-ylmethyl]-phenylamino}-methylene)-4H-isoquinoline-1,3-dione] | 390 nM | > 50 µM | 0.71 µM | 3.2 µM | > 50 µM | 3.9 µM | 0.52 µM |  |  |  |  |  |  |  |  | 
O=C(/C=C\Cl)Nc1ccc(CN/C=C2\C(=O)NC(=O)c3ccc(I)cc32)cc1O [Example 337, (2Z)-3-Chloro-N-[2-hydroxy-4-({[(Z)-(6-iodo-1,3-dioxo-2,3-dihydroisoquinolin-4(1H)-ylidene)methyl]amino}methyl)phenyl]acrylamide] | 20 nM | 1 µM | 1.1 µM | 0.91 µM | 3.1 µM | 0.67 µM | 0.73 µM |  |  |  |  |  |  |  |  | 
COc1cccc(-c2ccc3c(c2)/C(=C/Nc2ccc(CN4CCCCC4)cc2)C(=O)NC3=O)c1 [Example 117, (4Z)-6-(3-Methoxyphenyl)-4-({[4-(piperidin-1-ylmethyl)phenyl]amino}methylene)-isoquinoline-1,3(2H,4H)-dione] | 27800 nM | > 50 µM | 2.7 µM | 2.4 µM | > 50 µM | 1.4 µM | 3 µM |  |  |  |  |  |  |  |  | 
O=C1NC(=O)c2ccc(Br)cc2/C1=C/NCCCN1CCCC1 [Example 309, (Z)-6-Bromo-4-((3-(pyrrolidin-1-yl)propylamino)methylene)isoquinoline-1,3(2H,4H)-dione] | 14700 nM | > 50 µM | 20 µM | 15 µM | > 50 µM | 26 µM | 26 µM |  |  |  |  |  |  |  |  | 
CN(C)CCCN/C=C1\C(=O)NC(=O)c2ccc(Br)cc21 [Example 306, (Z)-6-Bromo-4-((3-(dimethylamino)propylamino)methylene)isoquinoline-1,3(2H,4H)-dione] | 6700 nM | > 50 µM | 25 µM | 13 µM | > 50 µM | 26 µM | 37 µM |  |  |  |  |  |  |  |  | 
O=C1NC(=O)c2ccc(-c3cc4ccccc4s3)cc2C1=CNCc1ccc(O)c(O)c1 [Example 644, 6-Benzo[b]thiophen-2-yl-4-[(3,4-dihydroxy-benzylamino)-methylene]-4H-isoquinoline-1,3-dione] |  |  |  |  |  |  |  | 6.3 µM | 19.1 µM | 14.1 µM | 17.9 µM | 2000 nM | > 50 µM | > 50 µM |  | 
CN(C)CCCCN/C=C1\C(=O)NC(=O)c2ccc(Br)cc21 [Example 305, (Z)-6-Bromo-4-((4-(dimethylamino)butylamino)methylene)isoquinoline-1,3(2H,4H)-dione] | 1700 nM | 39.7 µM | 18 µM | 14 µM | > 50 µM | 21 µM | 23 µM |  |  |  |  |  |  |  |  | 
CCNCC1CCN(c2ccc(N/C=C3\C(=O)NC(=O)c4ccc(I)cc43)cc2)CC1 [Example 456, (4Z)-4-{[(4-{4-[(Ethylamino)methyl]piperidin-1-yl}phenyl)amino]methylene}-6-iodoisoquinoline-1,3(2H,4H)-dione] |  |  |  |  |  |  |  | 11 µM | 8.3 µM | 2.7 µM | 9.2 µM | 470 nM | > 50 µM | > 50 µM |  | 
COc1cnc(CNC=C2C(=O)NC(=O)c3ccc(I)cc32)cc1O [Example 362, 6-Iodo-4-{[(4-hydroxy-5-methoxy-pyridin-2-ylmethyl)-amino]-methylene}-4H-isoquinoline-1,3-dione] | 10 nM | 0.5 µM | 1 µM | 0.7 µM | 14.7 µM | 1.3 µM | 0.2 µM |  |  |  |  |  |  |  |  | 
O=C1NC(=O)c2ccc(Br)cc2/C1=C/NCc1cccc(O)c1 [Example 46] | 33 nM | > 50 µM | > 50 µM | 23 µM | > 50 µM | 23 µM | > 50 µM |  |  |  |  |  |  |  |  | 
O=C1NC(=O)c2ccc(I)cc2/C1=C/NCc1ccc(NC(=O)c2ccccc2)c(O)c1 [Example 334, N-[2-Hydroxy-4-({[(Z)-(6-iodo-1,3-dioxo-2,3-dihydroisoquinolin-4(1H)-ylidene)methyl]amino}methyl)phenyl]benzamide] | 70 nM | 7.8 µM | 7.9 µM | 5.9 µM | > 50 µM | 7.1 µM | 7.2 µM |  |  |  |  |  |  |  |  | 
O=C1NC(=O)c2ccc(I)cc2/C1=C/Nc1ccc(N2CCNCC2)nc1 [Example 410, (4Z)-6-Iodo-4-{[(6-piperazin-1-ylpyridin-3-yl)amino]methylene}isoquinoline-1,3(2H,4H)-dione] | 2100 nM | 17.6 µM |  |  | 25.3 µM |  |  | 5.1 µM | 6.8 µM | 2.8 µM | 2.3 µM |  |  |  |  | 
CN1CCC(N2CCN(c3ccc(N/C=C4\C(=O)NC(=O)c5ccc(I)cc54)cc3)CC2)CC1 [Example 387, (4Z)-6-Iodo-4-[({4-[4-(1-methylpiperidin-4-yl)piperazin-1-yl]phenyl}amino)methylene]isoquinoline-1,3(2H,4H)-dione] | 900 nM | > 50 µM | 24 µM | 33 µM | > 50 µM | 7.7 µM | 25 µM |  |  |  |  |  |  |  |  | 
CCOc1ccc(CN/C=C2\C(=O)NC(=O)c3ccc(Br)cc32)cc1O [Example 166, (4Z)-6-Bromo-4-{[(4-ethoxy-3-hydroxybenzyl)amino]methylene}isoquinoline-1,3(2H,4H)-dione] | 30 nM | 45.5 µM | 19 µM | 2.2 µM | > 50 µM | 1.3 µM | 1.4 µM |  |  |  |  |  |  |  |  | 
